Test [1] has as its target T1, fragment 1-47 of type A cholecystokinin receptor, CCKA-R(1-47) (Homo sapiens, UniProt P32238).
T1 construct: Fragment 1-47 of type A receptor, CCKA-R(1-47), and the compound of formula (IV), both synthesised by solid-phase peptide synthesis methods, were used; made in house; host or cells: chemical solid-phase peptide synthesis (no expression host)
T1 sequence (P32238 1-47): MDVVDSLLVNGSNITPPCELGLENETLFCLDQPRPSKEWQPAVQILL
Briefly: Fluorescence spectroscopy binding to receptor fragment CCKA-R(1-47). From the text: The binding between the compound prepared as described in example 1 and fragment 1-47 of type A cholecystokinin receptor was studied with fluorescence spectroscopy. Although the compound of formula (IV), as it has no sulphate functions on the tyrosine residue, should have greater affinity for type B cholecystokinin receptor, the experiment performed and the results obtained are entirely legitimate, because the receptor fragment used contains no residues (Arg 197) which are known to be responsible for interaction with the sulphate group.
Fragment 1-47 of type A receptor, CCKA-R(1-47), and the compound of formula (IV), both synthesised by solid-phase peptide synthesis methods, were used. Reference should be made to example 1 for the synthesis of compound (IV); for the synthesis of the receptor fragment, see R. Ragone, 47-53, 56, 2001, Biopolymers).
The interaction between receptor fragment CCKA-R(1-47) and compound (IV) was observed by monitoring the tryptophan fluorescence. The emission spectra were recorded at room temperature using a Jasco FP-750 spectrofluorimeter at the excitation wavelength of 296 nm to excite the tryptophan selectively. Small aliquots of a concentrated solution of compound (IV) dissolved in phosphate buffer at pH 7.2 were added to a fixed volume of a solution of CCKA-R(1-47) dissolved in the same solvent, in the presence of a 10 mM solution of sodium dodecylsulphate micelles, used to mimic the cell membrane. […]
Increasing quantities of compound of formula (IV) were added from a concentrated master solution containing 10 mM SDS micelles.
As will be seen in FIG. 2, which exemplifies a typical saturation curve, the fluorescence signal is gradually quenched as a result of the binding. The experiments were performed at various receptor concentrations, and fluorescence quenching was always observed. […] To distinguish the modifications in fluorescence caused by the binding, the contributions to fluorescence of the receptor and peptide isolated were subtracted, and a small variation in fluorescence compared with the value measured was obtained.

In test [2] the test system is type A cholecystokinin receptor. Briefly: Intracellular calcium response in myenteric neurones (confocal microscopy). It counts as cell-based. Particulars: perfusion for 60 seconds. An excerpt:
Biological tests have been carried out to confirm the activity of the cyclic compound of formula (IV), using neurone cells which express type A cholecystokinin receptor. […] Both these compounds should show a lower level of activity than the corresponding analogs containing the sulphate group on the tyrosine residue. The biological activity tests involved the use of myenteric neurones as receptor-expressing cells, and the use of a confocal microscope with a suitable software package to measure peptide activity. The tests were based on the following assumptions: • 1) myenteric neurones (of the intestinal wall) normally express type A CCK receptor • 2) binding between CCK and the receptor induces excitation of the cell (change in membrane potential), which can be recorded with electrophysiology studies • 3) the cell excitation is coupled to the passage of calcium from the outside to the inside of the cell through specific membrane channels • 4) if the calcium is rendered fluorescent (using calcium chelators which modify the emission wavelength if they are excited at a particular wavelength), the increased concentration of the intracellular calcium in response to a stimulus can be recorded • 5) confocal laser microscopy with the aid of specific software therefore enables these phenomena to be recorded, and the fluorescence to be converted into the intracellular calcium concentration.

Like-named read-outs stand apart in the source and are kept apart here. Where a SMILES comes first, the peptide text is derived from it. Bridges are numbered along the chain shown (N, C = ends). [ ]: non-standard residue; d: D form. Dap = NC[C@H](N)C(=O)O

The text below walks through data of patent US7329644B2, “Preparation and use of cyclic and branched peptides and their labelled derivatives as therapeutic agents, cholecystokinin agonists or antagonists, and diagnostic agents to identify and locate tumours” (Bracco Imaging S.p.A., priority 2001, dated 2008).

Turning to `CSCC[C@@H]1NC(=O)[C@H](Cc2c[nH]c3ccccc23)NC(=O)[C@@H](NC(=O)[C@H](CCSC)NC(=O)[C@H](Cc2ccc(O)cc2)NC(=O)[C@@H](N)CC(=O)O)CNC(=O)[C@H](CCCCN)NC(=O)[C@H](Cc2ccccc2)NC(=O)[C@H](CC(=O)O)NC1=O` [(IV)] (H-DYM[Dap]WMDFK; lactam 4-C), the equilibrium dissociation constant (Kd) is 50 to 200 nM in test [1] (experiments at various receptor concentrations, read-out: Kd range estimated by fitting procedures); 120 nM in test [1] (experiments at various receptor concentrations, standard deviation ±27 nM, read-out: Kd mean); 255 nM in test [1] (receptor concentration 2.6 μM, 10 mM phosphate buffer pH 7.2, 10 mM SDS micelles, fluorescence at 335 nm, read-out: Kd (binding curve of FIG. 2)).
With “Asp-Tyr-Met-Gly-Trp-Met-Asp-Phe-amide [CCK8]”, in test [2], the intracellular calcium concentration result is given as “induce an increase in the intracellular calcium concentration”.
